Data taken from patent US20090176701A1, “Anti-microbial agents that interact with the complement system” (priority 2005, published 2009).

Tests used:
Type in all cases: cell-based
E. coli O18:K1:H7 [1] = experiment: Bacterial killing assay without blood (growth medium); conditions: Table 4; no blood, peptide 3 μM; growth medium 6.2
Method: Peptides #1, #3 and #4 were tested for their activity without blood on E. coli O18:K1:H7. The peptides were assayed at 3 μM. The same blood and TFPI controls were included as in Experiment I.

E. coli O18:K1:H7 [2] = experiment: Bacterial killing assay in serum or plasma (complement dependence)
[3] = test system: E. coli O7:K1(L):NM (ATCC 23503); experiment: Bacterial killing assay with normal human serum, additional strain; conditions: Table 3, peptide 3 μM, NHS control 5.3
Method: Peptide #3 was tested for activity at 3 μM on additional strains of E. coli using normal human serum as a control.

E. coli O18:K1:H7 [4] = experiment: Bacterial killing assay in 10% blood; design: CFU / CFU (Range) / CFU 1 hour / CFU 3 hours / CFU 5 hours / CFU 3 hour: scale not given here; conditions: for CFU 1 hour / CFU 3 hours: Table 5, 3000 CFU; for CFU 1 hour: blood 3.4; for CFU 3 hours: blood 4.2; for CFU 5 hours / CFU 3 hour: Table 6; for CFU (Range): Table 9
Method: TFPI was incubated with α-thrombin, plasmin, elastase and cathepsin G in 10% blood and tested for bacterial killing activity against E. coli O18:K1:H7 as follows. Recombinant TFPI at 5 μM (unless indicated otherwise), was treated with plasmin (100 nM, lane 3) and α-thrombin (100 nM, lane 7; 1 μM, lane 8) (A), elastase (100 nM, lanes 3 and 4) (B), and cathepsin G (100 nM, lane 4; 1 μM, lanes 5, 6 and 7) (C) in a total volume of 180 μl. The reaction contained TFPI diluted in RPMI 1640 without phenol red, 25 mM Hepes, pH 7.5 (RPMI), 3000 CFU E. coli O18:K1:H7 in 40 μl PBS, and diluted enzyme in 20 μl RPMI. The volume was adjusted with RPMI. The samples were pre-incubated for 15-30 minutes before the addition of anti-coagulant-free fresh blood to a final volume of 200 μl. Controls were 10% blood in RPMI, TFPI at 1, 2 and 5 μM, and the enzymes alone at the respective concentrations. The samples were incubated for 4 hours at 37° C. with 5% CO2 in a humidified incubator and serial dilutions plated on Tryptase soy agar plates. The number of bacterial colonies was determined after overnight incubation at 37° C. All experimental conditions are run in duplicate. The data represent the average colony number.
The 18 μl aliquots were diluted to 10 μM TFPI with 445 μl RPMI 1640 without phenolred, 25 mM Hepes, pH 7.5 (RPMI) and assayed at a final concentration of 5 μM in 200 μl reactions containing 3000 CFU E. coli in 40 μl PBS, 10% non-coagulated blood, and adjusted to the final volume with RPMI. Negative controls were 10% blood in RPMI, TFPI at 5 μM and cathepsin G at 400 nM. Anti-coagulant free blood was freshly drawn and added to the reaction as the last component. The samples were manipulated as described above.
Peptides were designed to test for bacterial killing activity localized in the C-terminal domain of TFPI. Activity was measured against Gram negative (E coli O18:K1:H7. ATCC 700973) bacteria in the presence of 10% blood as described above. Controls were RPMI with 10% blood and 100 nM Tifacogin. The biological activity was determined from the reduction of bacterial colonies, as above.
The three peptides #1, #2, & #3 were diluted in H2O to 10 fold their final assay concentration and incubated with bacteria for 4 hours, at the final concentrations of 3 μM, 300 nM 100 nM and 10 nM. E. coli was used at 3000 CFU/200 μl. Surviving colony numbers were determined as described in Example 1. […] Full-length TFPI has no activity against Gram negative bacteria in these assays at the concentrations tested.
Time-dependency: Peptides were incubated with 3000 CFU E. coli O18:K1:H7 at the indicated final concentrations in the presence of 10% blood in three parallel 200 μl reactions as described above. RPMI with 10% blood was used as negative control. After incubation for 1, 3, or 5 hours samples were assayed for the effect on bacterial survival by plating serial dilutions onto agar plates. […] The effect of peptides on bacterial survival increases over the time-span studied.
In these experiments, variable concentrations of E. coli O18:K1:H7 (3×10^3, 3×10^4 or 3×10^5 CFU/200 μl) were challenged with either 3 μM or 100 nM peptide #3 in RPMI/10% blood, and incubated for 3 or 5 hours before dilution and plating. Briefly, the bacteria were diluted to the indicated CFU in 40 μl PBS, the reactions assembled at a final volume of 200 μl as above, and incubated at 37° C. Serial dilutions of the reactions were plated and the colony number determined after overnight incubation. […] At 5 hours no effect on the high CFU culture was discernable, indicating a titration of the killing activity and the high CFU culture exceeding the capacity.

Sequence: GFIQRISKGGLIKTKRKRKKQRVKIAY (homo sapiens) [Peptide #3, TFPI aas 242-268]
- CFU (Range) (E. coli O18:K1:H7 [1]): 6.2 (6.1-6.2)
- bacterial killing activity in CVF-treated serum (E. coli O18:K1:H7 [2]; FIG. 8C, 1 U/ml CVF): still preserved
- bacterial killing activity in CVF-treated serum (E. coli O18:K1:H7 [2]; FIG. 8C, serum treated with 10 U/ml of CVF): lost
- bacterial killing activity in serum (E. coli O18:K1:H7 [2]; FIG. 8C, untreated serum or serum incubated 30 minutes at room temperature without CVF): active
- bacterial killing activity in serum (rank) (E. coli O18:K1:H7 [2]; FIG. 8D, peptides serially diluted to 300 nM, and 30 nM in serum): strongest effect
- bacterial killing activity in C4-deficient serum (E. coli O18:K1:H7 [2]; FIG. 9, C4-deficient guinea pig serum): completely devoid of bacterial killing activity
- bacterial killing activity in complement-depleted sera (E. coli O18:K1:H7 [2]; FIG. 9, serum depleted for C1q, C3, C6, C2, C9, or deficient for C4): loss
- bacterial killing activity after add-back of complement factor (E. coli O18:K1:H7 [2]; FIGS. 9 C and D, purified C1 complex (2.34 μg) or factor C4 (6 μg) added back to the respective depleted/deficient serum): restored
- CFU (E. coli O18:K1:H7 [2]; Table 7, serum at 40 μl, digested rTFPI 5 μM, peptide #3 in parallel, control 4.2): 1.2
- CFU (E. coli O18:K1:H7 [2]; Table 8, Serum + 5 mM MgC12, 10 mM EDTA, control 4.4): 4.2
- bacterial killing activity in chelated serum (E. coli O18:K1:H7 [2]; serum containing 10 mM EGTA and 5 mM MgCl2): no bacterial killing activity
- CFU [3]: 2.9
- activity against O18ac:K1:H7 E. coli strain in blood (E. coli O18:K1:H7 [4]; 10% blood, 4 hours, concentrations tested 10 nM to 3 μM, peptide #5 compared to peptide #3): active
- CFU (E. coli O18:K1:H7 [4]; Table 1, peptide 300 nM, 10% blood, 3000 CFU/200 μl, 4 hours, blood control 5.1): 2.2
- CFU (E. coli O18:K1:H7 [4]; Table 2, peptide 10 nM, 10% blood, blood control 3.5): 2.6
- CFU (E. coli O18:K1:H7 [4]; Table 2, peptide 100 nM, 10% blood, blood control 3.5): 1.2
- CFU 1 hour (E. coli O18:K1:H7 [4]; 300 nM, 10% blood): 3.3
- CFU 3 hours (E. coli O18:K1:H7 [4]; 300 nM, 10% blood): 1.2
- CFU 1 hour (E. coli O18:K1:H7 [4]; 3 μM, 10% blood): 3.2
- CFU 3 hours (E. coli O18:K1:H7 [4]; 3 μM, 10% blood): 0.2
- CFU 5 hours (E. coli O18:K1:H7 [4]; 3000 bacteria, 100 nM, blood alone 3.4): 1.2
- CFU 3 hour (E. coli O18:K1:H7 [4]; 3000 bacteria, 100 nM, blood alone 3.9): 2.3
- CFU 3 hour (E. coli O18:K1:H7 [4]; 30,000 bacteria, 100 nM, blood alone 5.1): 1.5
- CFU 5 hours (E. coli O18:K1:H7 [4]; 30,000 bacteria, 100 nM, blood alone 6.3): 4.1
- CFU 3 hour (E. coli O18:K1:H7 [4]; 30,000 bacteria, 3 μM, blood alone 5.1): 1.1
- CFU 5 hours (E. coli O18:K1:H7 [4]; 30,000 bacteria, 3 μM, blood alone 6.3): 3.6
- CFU 3 hour (E. coli O18:K1:H7 [4]; 300,000 bacteria, 100 nM, blood alone 7.7): 7.5
- CFU 5 hours (E. coli O18:K1:H7 [4]; 300,000 bacteria, 100 nM, blood alone 8.4): 9.1
- CFU 3 hour (E. coli O18:K1:H7 [4]; 300,000 bacteria, 3 μM, blood alone 7.7): 5.8
- CFU 5 hours (E. coli O18:K1:H7 [4]; 300,000 bacteria, 3 μM, blood alone 8.4): 9.1
- CFU (E. coli O18:K1:H7 [4]; Table 7, blood at 20 μl, digested rTFPI 5 μM, peptide #3 in parallel, control 4.1): 1.5
- CFU (Range) (E. coli O18:K1:H7 [4]; peptide 3 μm, Heparin, 3 U/mL): 5.5
- CFU (Range) (E. coli O18:K1:H7 [4]; peptide 3 μm, LMW heparin, 0.3 U/mL): 4.2 (4.1-4.2)
- CFU (Range) (E. coli O18:K1:H7 [4]; peptide 3 μm, LMW heparin, 3 U/mL): 5.2 (5.2-5.3)
- bacterial killing activity with un-fractionated heparin (E. coli O18:K1:H7 [4]; peptide 3 μm, un-fractionated heparin at 0.3 U/ml, data not shown): partial loss of bacterial killing activity
